For experiment [1], the system named is 5-lipoxygenase. Kind of experiment: Inhibition of antigen-induced, SRS-A mediated bronchioconstriction in conscious guinea pigs. The format is in vivo. Conditions: i.p. in 5% Tween 80 suspension, 30mg/kg, 60 minutes before antigen challenge; % inhibition of the decrease in Cdyn. The text has this: Inhibition of Antigen-Induced, SRS-A Mediated Bronchioconstriction in Conscious Guinea Pigs
This model is used to measure the ability of a drug to inhibit 5-lipoxygenase in vivo. SRS-A (slow reacting substance of anaphylaxis - also referred to as leukotrienes C₄, D₄ and E₄) is released by cells in the sensitized guinea pig upon stimulation by antigen, resulting in bronchioconstriction and change in pulmonary function. The leukotrienes are biosynthesized from arachidonic acid by the enzyme 5-lipoxygenase. Therefore, an inhibitor of 5-lipoxygenase could reduce the production of SRS-A and attenuate the bronchioconstriction.
Male outbred Hartley strain albino guinea pigs (250-300 grams) were sensitized by i.p. injection of ovalbumin (3mg/kg) followed by an i.p. injection of Bordetella pertussis (about 5x10⁹ killed organisms) and studied 14 days later.
Sensitized guinea pigs (fasted for 18 hours) were anesthesized and a catheter-tip pressure transducer was inserted into the pleural space of each animal. The animals are pretreated (i.p.) with pyrilamine (10mg/kg) and indomethacin (10mg/kg) to antagonize the effects of histamine and inhibit cyclooxygenase respectively. Cyclooxygenase products and histamine are released endogenously along with SRS-A, upon antigen challenge. Test compound is also administered i.p., 60 minutes before antigen challenge.
The guinea pigs were placed in a "head out" plethysmograph and allowed to recover from anesthesia. Airflow into the respiratory system, pleural pressure and airflow signals were measured, and tidal volume, dynamic pulmonary compliance (Cdyn) and breathing frequency were calculated according to a published technique (E.G. Damen et al., Toxicol. Appl. Pharmacol., 1982, 64, 465). After baseline values for pulmonary function were obtained, the animals were challenged by aerosolized ovalbumin. The overall changes in pulmonary function parameters were determined by calculating the mean changes from baseline during the period 5 to 15 minutes following antigen challenge.
Drug efficacy was determined by comparing the mean of the percent decrease in Cdyn from baseline in drug treated animals (N=4-6) to control animals (N=10-12).

The target in experiment [2] is T1, 5-lipoxygenase (Homo sapiens, UniProt P09917).
T1 construct: Human PMN's (5 x 10⁶ cells/0.5 mL) in pH 7.2 phosphate buffer; endogenous in cells; host or cells: human polymorphonuclear leukocytes (PMN)
T1 sequence (P09917 1-674): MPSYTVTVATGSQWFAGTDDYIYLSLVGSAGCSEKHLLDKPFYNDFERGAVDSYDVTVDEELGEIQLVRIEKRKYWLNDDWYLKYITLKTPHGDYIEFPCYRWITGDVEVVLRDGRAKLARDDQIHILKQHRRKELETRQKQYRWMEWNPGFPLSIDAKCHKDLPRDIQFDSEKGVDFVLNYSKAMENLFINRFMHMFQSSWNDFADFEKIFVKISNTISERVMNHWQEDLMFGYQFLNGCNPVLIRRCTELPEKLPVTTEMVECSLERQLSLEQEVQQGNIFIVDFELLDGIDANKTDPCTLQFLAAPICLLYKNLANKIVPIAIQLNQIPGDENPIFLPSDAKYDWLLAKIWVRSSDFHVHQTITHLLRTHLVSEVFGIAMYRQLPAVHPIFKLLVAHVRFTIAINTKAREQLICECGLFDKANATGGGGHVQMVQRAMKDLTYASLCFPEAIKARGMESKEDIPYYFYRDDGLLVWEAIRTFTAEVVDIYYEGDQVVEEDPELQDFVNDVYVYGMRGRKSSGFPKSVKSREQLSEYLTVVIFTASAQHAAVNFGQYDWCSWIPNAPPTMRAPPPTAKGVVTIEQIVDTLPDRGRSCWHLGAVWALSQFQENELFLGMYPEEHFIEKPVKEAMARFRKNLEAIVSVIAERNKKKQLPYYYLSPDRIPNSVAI
The experiment is described as follows: Inhibition of 5-lipoxygenase (5-HETE biosynthesis) in human polymorphonuclear leukocytes. Type of experiment: cell-based. The conditions noted are these: human PMN's, 5-HETE band vs control; test concentration 1 microM; read-out: Inhibition of 5-LO % at 1 M. Here is the method: Inhibition of 5-Lipoxygenase in Human Polymorphonuclear Leukocytes (PMN's)
The inhibition of 5-lipoxygenase is measured by determining whether and to what extent test compounds inhibit the amount of 5-HETE biosynthesized by human PMN's. 5-HETE biosynthesis serves as a marker for arachidonic acid metabolism by 5-lipoxygenase.
Human PMN's (5 x 10⁶ cells/0.5 mL) in pH 7.2 phosphate buffer containing Ca²⁺ (0.6 mM) and Mg²⁺ (1.0 mM) were incubated with test compound for 15 minutes at 37°C with shaking. Calcium ionophore A23187 (0.25 mM, 0.01 mL) and [¹⁴C] arachidonic acid (0.10 microCi in 0.025 mL 0.01N NaOH) were added, and the mixture incubated another 2.5 minutes. The reaction was terminated by the addition of 0.025 mL of 1.0 N HCl. The mixture was then extracted with ethyl acetate-methylene chloride (2:3) supplemented with 12 microgram/mL cold arachidonic acid to reduce degradation of the metabolites. After concentrating the organic phase, the number of microlitres containing 5 x 10⁴ cpm was determined and that volume applied to a silica gel plate. The plate was developed in methylene-chloride-methanol-acetic acid-water (90:8:1:0.8), air dried, and counted on a Berthold linear TLC analyzer. The integrated area of the 5-HETE band was determined and compared with the control (no drug).
In cases where the IC₅₀ was determined, the result is shown in microM.

In experiment [3] the test system is 5-lipoxygenase. The experiment is described as follows: Inhibition of antigen-induced, late phase inflammatory cell infiltration in guinea pigs. Type of experiment: in vivo. Conditions: 60 minutes before antigen challenge, lung lavage four hours after challenge. The text has this: Inhibition of Antigen-Induced, Late Phase Inflammatory Cell Infiltration in Guinea Pigs
This model is used to measure the ability of a drug to inhibit 5-lipoxygenase in vivo. In addition to SRS-A, a chemotactic substance LTB₄ is also released by cells in the sensitized guinea pig lung upon stimulation by antigen. As a result there is a measurable influx of cells into the lung. Therefore, an inhibitor of 5-lipoxygenase could reduce the formation of LTB₄ and thereby reduce the cell influx into the lung.
Male outbred Hartley strain albino guinea pigs (250-300 grams) were sensitized to ovalbumin as in the procedure for inhibition of antigen-induced, SRS-A mediated bronchioconstriction in conscious guinea pigs.
Sensitized guinea pigs were fasted and pretreated with pyrilamine and indomethacin as in bronchioconstriction testing procedure. Test compounds, suspended in 1% acacia, were administered 60 minutes before antigen challenge. […] Whole lung lavage was performed with three 5 mL aliquots of normal saline buffered with sodium bicarbonate.
Total cell counts were performed on a Coulter Counter, and differential cell counts were performed. Compounds were evaluated for their ability to alter the antigen-induced total cell influx and, more specifically, neutrophil (PMN) influx.

In experiment [4] the test system is A23187-Induced LTB₄ Generation. The experiment is described as follows: Ex vivo inhibition of A23187-induced LTB4 generation in squirrel monkey blood. Set-up: species or system Squirrel Monkeys. The conditions noted are these: Primates, 1 h, 60 min after dosing, vehicle per footnotes 2-4. Here is the method: Ex Vivo Inhibition of A23187-Induced LTB₄ Generation in Squirrel Monkeys.
Incubation of squirrel monkey whole blood with calcium ionophore A23187 stimulates the production of LTB₄. This LTB₄ production can be inhibited by a lipoxygenase inhibitor in vitro by incubating the blood with the inhibitor prior to A23187 challenge. By dosing squirrel monkeys with a lipoxygenase inhibitor prior to withdrawal of a blood sample, one can determine the ability of the lipoxygenase inhibitor to be absorbed into the bloodstream by measuring the inhibition of A23187 induced LTB₄ production ex vivo.
Squirrel monkeys (400-650g) were fasted for 18 hours, anesthetized and dosed either orally or intraperitoneally with test compound. After the desired time period, blood was withdrawn from the femoral vein. The blood (0.5 mL) was heparinized, preincubated at 37°C for 5 minutes and stimulated with A23187 in DMSO to give a final concentration of 30 microM. The reaction was terminated with EGTA (final concentration 10 microM), and the blood centrifuged. Levels of LTB₄ in the plasma were then determined by radioimmunoassay.
The results shown in Table 4 illustrate the ability of a prodrug of type 2a or 2b to be absorbed after ip or po dosing compared to the parent compound 1a.

SMILES strings stand for the structures. Where two headings read alike, the source gives them in different places.

As to `CC(C)c1cc(C=Cc2cccnc2)cc(C(C)C)c1O` [Compound 1ab], in the experiment with 5-lipoxygenase [1], the “% Inhibition of Bronchioconstriction” value is recorded as 34%. In addition, the inhibition at 1 µM on 5-lipoxygenase [2] came to 73%.
In the case of `Cc1cc(C=Cc2ccsc2)cc(C)c1O` [Compound 1o], the “% Inhibition of Bronchioconstriction” value in the experiment with 5-lipoxygenase [1] worked out at 26%. Further, the inhibition at 1 µM on 5-lipoxygenase [2] turned out to be 84%.
With `Cc1cc(C=Cc2cccnc2)cc(C)c1O` [Compound 1x], in the experiment with 5-lipoxygenase [1], the “% Inhibition of Bronchioconstriction” value is reported as 39%. Further, the inhibition at 1 µM at 5-lipoxygenase [2] is 62%.
In the case of `COc1cc(C=Cc2cccs2)cc(C)c1O` [Compound 1d, 2-Methoxy-6-methyl-4-[2-(2-thienyl)ethenyl]phenol], the “% Inhibition of Bronchioconstriction” value in the experiment with 5-lipoxygenase [1] was 41%. The inhibition at 1 µM at 5-lipoxygenase [2] was 65%.
In the case of `CCCc1cc(C=Cc2cccs2)cc(OC)c1O` [Compound 1f], the “% Inhibition of Bronchioconstriction” value in the experiment with 5-lipoxygenase [1] amounted to 57%. Besides, in the experiment with 5-lipoxygenase [3] (30 mg/kg ip), the “% Inh. PMN” value stood at 54% and the “% Inh. Total Cells” value amounted to 77%. At 5-lipoxygenase [2], the inhibition at 1 µM stood at 76%.
Turning to `Cc1cc(C=Cc2cccs2)cc(C)c1O` [Compound 1a, 2,6-Dimethyl-4-[2-(2-thienyl)ethenyl]phenol], the inhibition at 30 mg/kg is 12% in experiment [4] (30 mg/kg ip, read-out: Percent Inh. Monkey 2); 4% in experiment [4] (30 mg/kg ip, read-out: Percent Inh. Monkey 3); 47% in experiment [4] (30 mg/kg ip, read-out: Percent Inh. Monkey #1); 0% in experiment [4] (30 mg/kg po, read-out: Percent Inh. Monkey 2); 0% in experiment [4] (30 mg/kg po, read-out: Percent Inh. Monkey 3); 18% in experiment [4] (30 mg/kg po, read-out: Percent Inh. Monkey #1). Besides, in the experiment on 5-lipoxygenase [1], the “% Inhibition of Bronchioconstriction” value was determined as 75%. Besides, the figures for the “% Inh. PMN” value in the experiment on 5-lipoxygenase [3] (30 mg/kg ip) and with 5-lipoxygenase [3] (30 mg/kg po) were 95% and 14%, respectively. Further, the “% Inh. Total Cells” value in the experiment with 5-lipoxygenase [3] (30 mg/kg ip) came to 78%; in the experiment with 5-lipoxygenase [3] (30 mg/kg po) it was 51%. For the same compound, the inhibition at 1 µM at 5-lipoxygenase [2] stood at 91%.
Take `CCc1cc(C=Cc2cccs2)cc(OC)c1O` [Compound 1e]: the “% Inhibition of Bronchioconstriction” value in the experiment on 5-lipoxygenase [1] stood at 51%. Also, the inhibition at 1 µM at 5-lipoxygenase [2] was 85%.

The values are drawn from patent EP0334119A1, “Compounds for inhibiting the biosynthesis of lipoxygenase-derived metabolites of arachidonic acid” (BOEHRINGER INGELHEIM PHARMACEUTICALS INC., priority 1988, dated 1989).
